Reference: paper PMC7252619 (PLoS ONE, 2020)
Where two headings read alike, the source gives them in different places. Blank lines part the entries; values can stand above or below the compound they belong to.

What was measured:
[1] = target: T1, MLK4 (Homo sapiens, UniProt Q5TCX8); assay type: biochemical; settings: for % Enzyme Activity (relative to DMSO controls), Data 1: replicate Data 1; for % Enzyme Activity (relative to DMSO controls), Data 2: replicate Data 2
T1 construct: purchased ReactionBiology
T1 sequence (Q5TCX8 whole entry): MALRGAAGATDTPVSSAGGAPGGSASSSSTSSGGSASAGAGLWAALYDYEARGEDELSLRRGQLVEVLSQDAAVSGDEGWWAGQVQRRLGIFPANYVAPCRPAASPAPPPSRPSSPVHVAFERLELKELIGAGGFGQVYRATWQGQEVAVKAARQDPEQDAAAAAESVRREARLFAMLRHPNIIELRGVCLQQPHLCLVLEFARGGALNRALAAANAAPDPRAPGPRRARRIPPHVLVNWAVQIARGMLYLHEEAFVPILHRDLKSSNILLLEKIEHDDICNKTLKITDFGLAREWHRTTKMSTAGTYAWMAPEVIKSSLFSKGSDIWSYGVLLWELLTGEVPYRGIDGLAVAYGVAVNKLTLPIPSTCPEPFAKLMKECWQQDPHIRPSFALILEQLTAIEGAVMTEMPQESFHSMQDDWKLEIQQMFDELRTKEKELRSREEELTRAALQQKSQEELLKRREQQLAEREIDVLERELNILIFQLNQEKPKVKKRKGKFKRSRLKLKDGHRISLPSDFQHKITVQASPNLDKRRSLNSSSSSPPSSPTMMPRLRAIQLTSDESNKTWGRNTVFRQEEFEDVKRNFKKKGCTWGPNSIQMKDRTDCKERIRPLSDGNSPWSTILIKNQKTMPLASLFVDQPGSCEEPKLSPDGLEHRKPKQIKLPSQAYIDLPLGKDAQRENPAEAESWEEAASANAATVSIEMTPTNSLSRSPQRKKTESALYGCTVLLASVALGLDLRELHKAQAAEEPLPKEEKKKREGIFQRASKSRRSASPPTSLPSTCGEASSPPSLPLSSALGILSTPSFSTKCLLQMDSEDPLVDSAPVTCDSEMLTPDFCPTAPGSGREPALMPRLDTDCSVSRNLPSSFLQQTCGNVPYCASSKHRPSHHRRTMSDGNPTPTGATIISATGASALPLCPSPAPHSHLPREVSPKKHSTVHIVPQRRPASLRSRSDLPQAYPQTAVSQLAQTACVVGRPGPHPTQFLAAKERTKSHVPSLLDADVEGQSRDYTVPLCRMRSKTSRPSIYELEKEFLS

[2] = WST-1 cytotoxicity assay on RPMI1788 cells (B-cell line); assay type: cell-based, human; settings: human, RPMI1788 cells (B-cell line), mean of 4 independent measures, read-out: Cytotoxicity, WST-1 RPMI 1788 IC 50 (µM) Mean
[3] = tested on: human PBMCs (responder cells) with RPMI1788 stimulator cells; experiment: Mixed Lymphocyte Reaction (MLR, T cell assay), 3H-thymidine incorporation; assay type: cell-based; settings: for IC50: Homo sapiens
Protocol: In order to test the efficacy and selectivity of the hit compounds on B-cells, 4 assays were performed: B-cell assay, Mixed Lymphocyte Reaction (MLR), WST-1 assay on RPMI1788 cells (B-cell line) and cytotoxicity WST-1 assay on Jurkat cells (T-cell line). Compounds were prepared as 10 mM stock solutions in dimethylsulfoxide (DMSO)and were tested at 50-10-1-0.1-0.01 and 0.001 μM in the 4 assays.
Blood samples of healthy volunteers were collected at the Red Cross of Mechelen, Belgium. Each donor consents to the use of their blood for research purposes. […] The human B cell line RPMI1788 (American Type Culture Collection, USA) and the human T cell line Jurkat (European Collection of Cell Cultures, ECACC, England) were maintained in RPMI1640 culture medium (BioWhittaker®, Lonza, Verviers, Belgium) containing 10% foetal calf serum (FCS, HyClone® Thermo Scientific, United Kingdom) and 5 μg/mL gentamicin sulphate (BioWhittaker®, Lonza, Verviers, Belgium) at 37°C and 5% CO2.
MLR assay (T cell assay): Freshly isolated human PBMCs (responder cells) were resuspended in RPMI1640 medium containing 10% FCS and 5nμg/mL gentamicin sulphate. RPMI1788 cells (stimulator cells) were inactivated by treatment with mitomycin C (Kyowa®, Takeda Belgium, Brussels, Belgium) for 20 min at 37°C, washed and finally suspended in culture medium. An amount of 100 μL of each cell suspension was mixed with 20 μL of diluted compound. The mixed cells were cultured at 37°C for 6 days in 5% CO2. DNA synthesis was assayed by the addition of 10 μCi (methyl-3H) thymidine (Perkin Elmer, Zaventem, Belgium) per well during the last 18 h in culture. Thereafter, the cells were harvested on glass filter paper and the counts per minute determined in a liquid scintillation counter (TopCount, Perkin Elmer, Zaventem, Belgium).

[4] = tested on: human CD19+ B cells; experiment: B-cell assay: IgG production of ODN2006-stimulated primary B cells (AlphaLISA); assay type: cell-based; settings: Homo sapiens, B-cell, 168 h; IgG production, ODN2006 0.1 μM, 7 days; mean of 4 independent experiments; read-out: B-cell IC50
[5] = target: T2, CK1d (Homo sapiens, UniProt P48730); experiment: Kinase activity test (ReactionBiology), % enzyme activity relative to DMSO; assay type: biochemical; settings: CK1d
T2 construct: purchased ReactionBiology
T2 sequence (P48730 whole entry): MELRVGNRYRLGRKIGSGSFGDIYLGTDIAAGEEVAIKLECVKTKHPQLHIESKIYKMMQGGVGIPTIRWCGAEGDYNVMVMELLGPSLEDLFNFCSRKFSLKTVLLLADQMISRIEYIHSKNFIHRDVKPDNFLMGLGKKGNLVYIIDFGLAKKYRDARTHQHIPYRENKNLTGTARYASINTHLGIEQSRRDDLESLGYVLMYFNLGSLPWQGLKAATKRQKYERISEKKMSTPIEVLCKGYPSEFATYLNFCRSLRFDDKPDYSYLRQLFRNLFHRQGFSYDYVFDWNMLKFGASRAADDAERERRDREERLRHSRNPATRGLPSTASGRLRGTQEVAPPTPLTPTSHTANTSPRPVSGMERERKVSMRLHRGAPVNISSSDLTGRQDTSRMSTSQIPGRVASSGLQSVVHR

[6] = target: T3, MAP2K2 (Homo sapiens, UniProt P36507); experiment: as above; assay type: biochemical
T3 construct: purchased ReactionBiology
T3 sequence (P36507 whole entry): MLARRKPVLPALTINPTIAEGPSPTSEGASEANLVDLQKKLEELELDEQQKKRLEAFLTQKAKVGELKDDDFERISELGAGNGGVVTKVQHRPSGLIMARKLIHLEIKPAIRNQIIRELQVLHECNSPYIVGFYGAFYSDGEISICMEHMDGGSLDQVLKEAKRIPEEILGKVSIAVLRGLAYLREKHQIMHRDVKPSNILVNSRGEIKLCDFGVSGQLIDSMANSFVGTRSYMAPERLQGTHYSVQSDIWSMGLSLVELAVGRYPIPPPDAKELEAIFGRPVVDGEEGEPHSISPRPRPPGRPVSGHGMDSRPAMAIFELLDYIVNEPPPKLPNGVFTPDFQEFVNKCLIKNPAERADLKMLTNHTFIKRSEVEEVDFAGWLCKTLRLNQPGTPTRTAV

[7] = target: T4, NEK2 (Homo sapiens, UniProt P51955); experiment: as above; assay type: biochemical;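 further: FDA-approved drugs chosen by structure-based repositioning, each screened at 10 or 1 µM for kinase activity, expressed as percent of DMSO controls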
T4 construct: purchased ReactionBiology
T4 sequence (P51955 1-445): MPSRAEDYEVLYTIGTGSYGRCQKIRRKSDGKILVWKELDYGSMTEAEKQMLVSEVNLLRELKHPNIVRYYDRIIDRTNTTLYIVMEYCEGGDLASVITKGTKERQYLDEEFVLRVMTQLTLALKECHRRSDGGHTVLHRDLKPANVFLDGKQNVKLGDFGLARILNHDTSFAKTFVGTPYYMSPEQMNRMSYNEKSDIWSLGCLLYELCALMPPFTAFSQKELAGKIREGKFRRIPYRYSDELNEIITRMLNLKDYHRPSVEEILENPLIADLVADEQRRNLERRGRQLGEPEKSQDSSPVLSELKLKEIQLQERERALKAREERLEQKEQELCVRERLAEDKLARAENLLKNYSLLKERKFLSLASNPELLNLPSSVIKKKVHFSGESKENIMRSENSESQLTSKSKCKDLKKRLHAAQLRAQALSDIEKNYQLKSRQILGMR

[8] = target: T5, MST-4 (Homo sapiens, UniProt Q9P289); experiment: as above; assay type: biochemical; settings: MST4;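 further: marketed FDA-approved drugs screened at 10 µM and 1 µM against a ten-kinase panel, remaining activity given as percent of DMSO controls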
T5 construct: purchased ReactionBiology
T5 sequence (Q9P289 whole entry): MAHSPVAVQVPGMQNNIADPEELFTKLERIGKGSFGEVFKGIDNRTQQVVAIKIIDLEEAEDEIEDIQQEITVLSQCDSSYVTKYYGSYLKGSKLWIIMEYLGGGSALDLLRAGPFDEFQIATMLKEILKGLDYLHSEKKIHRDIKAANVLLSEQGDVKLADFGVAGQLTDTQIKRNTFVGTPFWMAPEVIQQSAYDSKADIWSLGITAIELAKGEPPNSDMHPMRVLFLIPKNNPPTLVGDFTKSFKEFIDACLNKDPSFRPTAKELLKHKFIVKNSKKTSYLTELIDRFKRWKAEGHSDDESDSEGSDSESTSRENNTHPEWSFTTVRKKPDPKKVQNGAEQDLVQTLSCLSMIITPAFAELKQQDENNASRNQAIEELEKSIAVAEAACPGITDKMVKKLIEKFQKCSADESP

[9] = target: T6, DAPK1 (Homo sapiens, UniProt P53355); experiment: as above; assay type: biochemical; settings: DAPK1
T6 construct: purchased ReactionBiology
T6 sequence (P53355 whole entry): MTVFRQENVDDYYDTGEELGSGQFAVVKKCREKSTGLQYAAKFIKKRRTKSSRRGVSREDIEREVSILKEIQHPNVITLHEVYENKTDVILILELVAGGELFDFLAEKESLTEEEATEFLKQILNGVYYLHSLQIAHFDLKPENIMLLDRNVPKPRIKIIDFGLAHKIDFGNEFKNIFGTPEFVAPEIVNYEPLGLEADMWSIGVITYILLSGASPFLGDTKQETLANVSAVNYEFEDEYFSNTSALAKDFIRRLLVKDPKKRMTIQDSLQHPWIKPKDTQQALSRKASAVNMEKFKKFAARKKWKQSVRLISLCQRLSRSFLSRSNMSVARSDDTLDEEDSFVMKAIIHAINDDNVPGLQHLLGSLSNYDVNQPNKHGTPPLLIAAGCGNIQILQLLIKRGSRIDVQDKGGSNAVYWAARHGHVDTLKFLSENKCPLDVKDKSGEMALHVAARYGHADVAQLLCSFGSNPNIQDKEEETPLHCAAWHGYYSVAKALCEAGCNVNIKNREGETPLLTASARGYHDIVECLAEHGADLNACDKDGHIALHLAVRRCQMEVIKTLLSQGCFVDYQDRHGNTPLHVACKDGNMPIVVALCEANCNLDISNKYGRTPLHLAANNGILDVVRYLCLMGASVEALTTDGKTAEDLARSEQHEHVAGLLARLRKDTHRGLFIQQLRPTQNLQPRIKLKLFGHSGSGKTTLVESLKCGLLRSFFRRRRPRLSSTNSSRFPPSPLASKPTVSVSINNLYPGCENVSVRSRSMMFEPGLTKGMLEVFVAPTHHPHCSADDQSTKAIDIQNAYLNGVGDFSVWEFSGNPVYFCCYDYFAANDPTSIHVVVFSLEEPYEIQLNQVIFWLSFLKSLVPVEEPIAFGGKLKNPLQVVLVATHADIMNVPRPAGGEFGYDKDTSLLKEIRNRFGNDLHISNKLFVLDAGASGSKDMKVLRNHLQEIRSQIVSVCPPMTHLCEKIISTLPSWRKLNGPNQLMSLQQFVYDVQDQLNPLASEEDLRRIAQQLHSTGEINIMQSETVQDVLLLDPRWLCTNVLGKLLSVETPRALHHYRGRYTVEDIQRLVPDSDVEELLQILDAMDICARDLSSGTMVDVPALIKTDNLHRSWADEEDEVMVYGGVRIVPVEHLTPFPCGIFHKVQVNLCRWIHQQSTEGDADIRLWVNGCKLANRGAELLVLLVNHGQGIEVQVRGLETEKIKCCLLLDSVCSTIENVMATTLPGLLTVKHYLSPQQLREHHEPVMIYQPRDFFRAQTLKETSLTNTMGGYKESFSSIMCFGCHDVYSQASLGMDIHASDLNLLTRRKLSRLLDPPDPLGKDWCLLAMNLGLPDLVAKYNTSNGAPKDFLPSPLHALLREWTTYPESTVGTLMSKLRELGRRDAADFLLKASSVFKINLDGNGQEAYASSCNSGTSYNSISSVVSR

[10] = WST-1 cytotoxicity assay on Jurkat cells (T-cell line); assay type: cell-based, human; settings: human, Jurkat cells (T-cell line), mean of 4 independent measures, read-out: Cytotoxicity, WST-1 Jurkat IC 50 (µM) Mean
[11] = target: T7, EPHB4 (Homo sapiens, UniProt P54760); experiment: Kinase activity test (ReactionBiology), % enzyme activity relative to DMSO; assay type: biochemical; settings: EPHB4;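 further: EPHB4 was one of ten selected kinases in the screening panel, with enzyme activity expressed as a percentage of DMSO controls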
T7 construct: purchased ReactionBiology
T7 sequence (P54760 16-987): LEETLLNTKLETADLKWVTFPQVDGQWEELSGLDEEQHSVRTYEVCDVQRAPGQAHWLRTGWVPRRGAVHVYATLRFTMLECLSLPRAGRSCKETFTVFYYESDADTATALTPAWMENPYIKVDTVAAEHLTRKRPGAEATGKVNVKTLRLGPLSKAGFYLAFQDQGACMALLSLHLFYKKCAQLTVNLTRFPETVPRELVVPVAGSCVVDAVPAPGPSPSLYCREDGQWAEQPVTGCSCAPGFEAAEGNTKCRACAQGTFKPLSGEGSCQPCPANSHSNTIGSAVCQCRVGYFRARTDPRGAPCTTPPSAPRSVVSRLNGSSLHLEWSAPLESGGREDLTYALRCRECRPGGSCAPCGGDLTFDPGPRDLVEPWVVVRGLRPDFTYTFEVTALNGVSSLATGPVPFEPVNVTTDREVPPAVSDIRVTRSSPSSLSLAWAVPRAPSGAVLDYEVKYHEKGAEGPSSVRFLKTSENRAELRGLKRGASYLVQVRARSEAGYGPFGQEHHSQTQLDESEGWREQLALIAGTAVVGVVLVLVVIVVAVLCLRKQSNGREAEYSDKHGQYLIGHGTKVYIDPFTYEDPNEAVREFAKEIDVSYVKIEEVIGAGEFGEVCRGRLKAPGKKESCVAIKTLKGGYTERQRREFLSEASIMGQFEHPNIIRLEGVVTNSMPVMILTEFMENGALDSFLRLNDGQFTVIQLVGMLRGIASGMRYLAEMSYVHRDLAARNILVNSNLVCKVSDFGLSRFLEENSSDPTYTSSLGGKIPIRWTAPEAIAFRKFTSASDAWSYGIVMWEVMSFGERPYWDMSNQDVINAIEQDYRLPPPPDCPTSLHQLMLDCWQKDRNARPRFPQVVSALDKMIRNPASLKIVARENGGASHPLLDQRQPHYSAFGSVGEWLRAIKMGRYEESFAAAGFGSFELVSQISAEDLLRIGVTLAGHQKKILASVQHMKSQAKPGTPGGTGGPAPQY

[12] = target: VEGFR2 (Homo sapiens, UniProt P35968); experiment: as above; assay type: biochemical; design: purchased ReactionBiology; settings: VEGFR2;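 further: VEGFR2 was one member of a ten-kinase screening panel testing marketed FDA-approved drugs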
VEGFR2, sequence (P35968 20-1356): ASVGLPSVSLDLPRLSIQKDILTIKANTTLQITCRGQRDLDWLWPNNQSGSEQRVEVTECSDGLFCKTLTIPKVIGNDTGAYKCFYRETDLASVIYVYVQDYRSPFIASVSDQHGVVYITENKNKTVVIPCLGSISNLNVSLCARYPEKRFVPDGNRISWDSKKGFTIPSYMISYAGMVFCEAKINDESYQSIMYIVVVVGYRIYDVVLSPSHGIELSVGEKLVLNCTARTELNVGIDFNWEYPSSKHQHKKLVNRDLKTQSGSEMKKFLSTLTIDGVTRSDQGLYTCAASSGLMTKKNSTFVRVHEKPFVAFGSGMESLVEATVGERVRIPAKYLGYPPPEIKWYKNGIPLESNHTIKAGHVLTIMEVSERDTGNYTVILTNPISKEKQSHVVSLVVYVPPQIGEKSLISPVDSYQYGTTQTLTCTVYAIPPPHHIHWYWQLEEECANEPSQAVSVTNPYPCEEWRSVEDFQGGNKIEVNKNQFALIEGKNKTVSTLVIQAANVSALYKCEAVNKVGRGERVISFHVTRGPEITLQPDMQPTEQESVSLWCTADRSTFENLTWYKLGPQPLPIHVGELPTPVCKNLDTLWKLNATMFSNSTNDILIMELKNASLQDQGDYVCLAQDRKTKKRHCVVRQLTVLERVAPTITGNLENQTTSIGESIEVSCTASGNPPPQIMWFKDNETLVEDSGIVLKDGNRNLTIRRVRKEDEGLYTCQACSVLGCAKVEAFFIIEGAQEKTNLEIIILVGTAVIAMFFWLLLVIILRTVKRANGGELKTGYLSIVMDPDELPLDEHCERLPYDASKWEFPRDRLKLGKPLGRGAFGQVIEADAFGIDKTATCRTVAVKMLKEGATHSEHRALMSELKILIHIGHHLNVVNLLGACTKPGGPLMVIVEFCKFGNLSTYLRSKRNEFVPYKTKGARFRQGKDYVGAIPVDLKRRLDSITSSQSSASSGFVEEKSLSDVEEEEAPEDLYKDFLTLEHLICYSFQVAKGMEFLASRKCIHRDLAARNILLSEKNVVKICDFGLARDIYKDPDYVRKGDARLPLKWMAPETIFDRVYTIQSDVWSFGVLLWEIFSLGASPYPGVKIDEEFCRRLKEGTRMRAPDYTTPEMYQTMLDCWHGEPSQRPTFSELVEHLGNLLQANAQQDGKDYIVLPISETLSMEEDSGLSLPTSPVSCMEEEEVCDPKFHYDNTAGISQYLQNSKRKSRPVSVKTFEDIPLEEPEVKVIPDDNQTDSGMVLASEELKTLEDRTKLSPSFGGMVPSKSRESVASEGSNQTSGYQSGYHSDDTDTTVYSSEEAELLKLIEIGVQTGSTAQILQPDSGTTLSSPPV

[13] = target: T8, CDC7 (Homo sapiens, UniProt O00311); experiment: as above; assay type: biochemical;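 further: each drug screened at both 10 µM and 1 µM across a ten-kinase panel, activity expressed as percent of DMSO control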
T8 construct: purchased ReactionBiology

[14] = Average, read-out: % Enzyme Activity (relative to DMSO controls), Average
[15] = replicate Data 1, read-out: % Enzyme Activity (relative to DMSO controls), Data 1
[16] = replicate Data 2, read-out: % Enzyme Activity (relative to DMSO controls), Data 2
[17] = read-out: % Enzyme Activity (relative to DMSO controls), Average
[18] = read-out: % Enzyme Activity (relative to DMSO controls), Data 1
[19] = read-out: % Enzyme Activity (relative to DMSO controls), Data 2
[20] = read-out: % Enzyme activity at 1μM
[21] = read-out: % Enzyme activity at 10μM

Compound: CC(=O)Nc1nnc(S(N)(=O)=O)s1 [Acetazolamide]
% Enzyme Activity (relative to DMSO controls), Average ([1]; 1 uM): 106.03% | % Enzyme Activity (relative to DMSO controls), Data 1 ([1]; 1 uM): 105.08% | % Enzyme Activity (relative to DMSO controls), Data 2 ([1]; 1 uM): 106.98% | % Enzyme Activity (relative to DMSO controls), Average ([1]; 10 uM): 98.49% | % Enzyme Activity (relative to DMSO controls), Data 1 ([1]; 10 uM): 99.01% | % Enzyme Activity (relative to DMSO controls), Data 2 ([1]; 10 uM): 97.97%

IC50 [4]: 0.046 µM | remaining activity at 1 µM [5, 14]: 98.7% | remaining activity at 1 µM [5, 15]: 95.4% | remaining activity at 1 µM [5, 16]: 102% | remaining activity at 10 µM [5, 14]: 92.7% | remaining activity at 10 µM [5, 15]: 93.2% | remaining activity at 10 µM [5, 16]: 92.2% | remaining activity at 1 µM ([6]; MEK2, 1 uM, Average, read-out: % Enzyme Activity (relative to DMSO controls), Average): 45.1% | remaining activity at 1 µM ([6]; MEK2, 1 uM, replicate Data 1, read-out: % Enzyme Activity (relative to DMSO controls), Data 1): 44.8% | remaining activity at 1 µM ([6]; MEK2, 1 uM, replicate Data 2, read-out: % Enzyme Activity (relative to DMSO controls), Data 2): 45.5% | remaining activity at 10 µM ([6]; MEK2, 10 uM, Average, read-out: % Enzyme Activity (relative to DMSO controls), Average): 7.91% | remaining activity at 10 µM ([6]; MEK2, 10 uM, replicate Data 1, read-out: % Enzyme Activity (relative to DMSO controls), Data 1): 8.25% | remaining activity at 10 µM ([6]; MEK2, 10 uM, replicate Data 2, read-out: % Enzyme Activity (relative to DMSO controls), Data 2): 7.56% | remaining activity at 1 µM ([7]; NEK2, 1 uM, Average, read-out: % Enzyme Activity (relative to DMSO controls), Average): 81.6% | remaining activity at 1 µM ([7]; NEK2, 1 uM, replicate Data 1, read-out: % Enzyme Activity (relative to DMSO controls), Data 1): 81.9% | remaining activity at 1 µM ([7]; NEK2, 1 uM, replicate Data 2, read-out: % Enzyme Activity (relative to DMSO controls), Data 2): 81.2% | remaining activity at 10 µM ([7]; NEK2, 10 uM, Average, read-out: % Enzyme Activity (relative to DMSO controls), Average): 19% | remaining activity at 10 µM ([7]; NEK2, 10 uM, replicate Data 1, read-out: % Enzyme Activity (relative to DMSO controls), Data 1): 20% | remaining activity at 10 µM ([7]; NEK2, 10 uM, replicate Data 2, read-out: % Enzyme Activity (relative to DMSO controls), Data 2): 18% | remaining activity at 1 µM [8, 14]: 40.2% | remaining activity at 1 µM [8, 15]: 46.5% | remaining activity at 1 µM [8, 16]: 33.9% | remaining activity at 10 µM [8, 14]: 12% | remaining activity at 10 µM [8, 15]: 9.39% | remaining activity at 10 µM [8, 16]: 14.6% | remaining activity at 1 µM [9, 14]: 92% | remaining activity at 1 µM [9, 15]: 91.8% | remaining activity at 1 µM [9, 16]: 92.1% | remaining activity at 10 µM [9, 14]: 51.4% | remaining activity at 10 µM [9, 15]: 49.9% | remaining activity at 10 µM [9, 16]: 52.8%
Compound: Cc1nc(Nc2ncc(C(=O)Nc3c(C)cccc3Cl)s2)cc(N2CCN(CCO)CC2)n1 [Dasatinib, reference compound]
IC50 at 48 h [2]: 0.0324 µM | IC50 ([3]; RPMI-1788, mean of 4 independent measures, read-out: T-cell efficacy, MLR IC 50 (µM) Mean): 0.0032 µM | IC50 at 48 h [10]: 7.3 µM

Compound: Oc1cc(Cl)ccc1Oc1ccc(Cl)cc1Cl [Triclosan, reference compound]
IC50 at 48 h [2]: 27.7 µM | IC50 ([3]; RPMI-1788, read-out: T-cell efficacy, MLR IC 50 (µM) Mean): 34.3 µM | Selectivity Index (SI) MLR/B-cell ([3]; ratio of IC50 values): 1.64 | IC50 [4]: 20.9 µM | remaining activity at 1 µM [11, 14]: 100% | remaining activity at 1 µM [11, 15]: 101% | remaining activity at 1 µM [11, 16]: 99.9% | remaining activity at 10 µM [11, 14]: 97.4% | remaining activity at 10 µM [11, 15]: 97.3% | remaining activity at 10 µM [11, 16]: 97.4% | remaining activity at 1 µM [5, 14]: 96.6% | remaining activity at 1 µM [5, 15]: 94.8% | remaining activity at 1 µM [5, 16]: 98.3% | remaining activity at 10 µM [5, 14]: 96.9% | remaining activity at 10 µM [5, 15]: 97.8% | remaining activity at 10 µM [5, 16]: 96% | remaining activity at 1 µM [6, 17]: 97.6% | remaining activity at 10 µM [6, 17]: 96% | remaining activity at 1 µM [6, 18]: 95.3% | remaining activity at 10 µM [6, 18]: 95% | remaining activity at 1 µM [6, 19]: 99.8% | remaining activity at 10 µM [6, 19]: 97.1% | remaining activity at 1 µM [7, 17]: 99.2% | remaining activity at 10 µM [7, 17]: 64.6% | remaining activity at 1 µM [7, 18]: 98.5% | remaining activity at 10 µM [7, 18]: 68.9% | remaining activity at 1 µM [7, 19]: 99.8% | remaining activity at 10 µM [7, 19]: 60.4% | remaining activity at 1 µM [7, 20]: 99.2% | remaining activity at 10 µM [7, 21]: 64.6% | remaining activity at 1 µM [12, 14]: 111% | remaining activity at 1 µM [12, 15]: 108% | remaining activity at 1 µM [12, 16]: 114% | remaining activity at 10 µM [12, 14]: 101% | remaining activity at 10 µM [12, 15]: 103% | remaining activity at 10 µM [12, 16]: 99.9% | IC50 at 48 h [10]: 26.2 µM | remaining activity at 1 µM [13, 17]: 70.5% | remaining activity at 10 µM [13, 17]: 65.4% | remaining activity at 1 µM [13, 18]: 68.2% | remaining activity at 10 µM [13, 18]: 71.2% | remaining activity at 1 µM [13, 19]: 72.7% | remaining activity at 10 µM [13, 19]: 59.7% | remaining activity at 1 µM [13, 20]: 70.5% | remaining activity at 10 µM [13, 21]: 65.4%
